From article PMC11538350, “Synthetic studies on the tetrasubstituted D-ring of cystobactamids lead to potent terephthalic acid antibiotics” (Communications Chemistry, 2024)
Converted amounts (≈) assume the structure as drawn.

How the values were obtained:
E. ae. CIP 106754 = assay: MIC assay; type: cell-based, Enterobacter aerogenes; conditions: Klebsiella aerogenes, CIP106754, read-out: MIC E. ae. CIP 106754
Experimental: (§1) All cystobactamids were evaluated in MIC-assays on a panel of representative ESKAPE strains with focus on A. baumannii (Tables 1 and 2). Compared to our previous work[10],[17],[18], we specifically included more challenging test strains with known resistances against gyrase inhibitors.
(§2) 2.1 Materials and Methods
(§3) Strains were cultivated according to standard procedures. Bacterial cryo-cultures were
(§4) resuspended into fresh MHBII (cation adjusted) medium. The resuspension
(§5) assay plate (Corning, #3788).
(§6) in parallel as a positive control. […]

A. baum. ATCC BAA-1710 = assay: MIC assay; type: cell-based; conditions: Acinetobacter baumannii, ATCCBAA1710, read-out: MIC A. baum. ATCC BAA-1710
Experimental: as §1, §2, §3, §4, §5, §6

A. baum. CIP-105742 = assay: MIC assay; type: cell-based; conditions: Acinetobacter baumannii, CIP105742, read-out: MIC A. baum. CIP-105742
Experimental: as §1, §2, §3, §4, §5, §6

A. baum. CIP-107292 = assay: MIC assay; type: cell-based; conditions: Acinetobacter baumannii, CIP107292, read-out: MIC A. baum. CIP-107292
Experimental: as §1, §2, §3, §4, §5, §6

A. baum. DSM-30008 = assay: MIC assay; type: cell-based; conditions: Acinetobacter baumannii, DSM30008, read-out: MIC A. baum. DSM-30008
Experimental: as §1, §2, §3, §4, §5, §6

A. baum. R835 = assay: MIC assay; type: cell-based; conditions: Acinetobacter baumannii, read-out: MIC A. baum. R835
Experimental: as §1, §2, §3, §4, §5, §6

E. cloacae ATCC BAA-2468 = assay: MIC assay; type: cell-based; conditions: Enterobacter cloacae, ATCCBAA2468, read-out: MIC E. cloacae ATCC BAA-2468
Experimental: as §1, §2, §3, §4, §5, §6

E. coli ATCC-25922 = assay: MIC assay; type: cell-based; conditions: Escherichia coli, ATCC25922, read-out: MIC E. coli ATCC-25922
Experimental: as §1, §2, §3, §4, §5, §6

E. coli LM705 = assay: MIC assay; type: cell-based; conditions: Escherichia coli, LM705, read-out: MIC E. coli LM705
Experimental: as §1, §2, §3, §4, §5, §6

K. pneum. CIP-104298 = assay: MIC assay; type: cell-based; conditions: Klebsiella pneumoniae, CIP104298, read-out: MIC K. pneum. CIP-104298
Experimental: as §1, §2, §3, §4, §5, §6

K. pneum. KP10581 = assay: MIC assay; type: cell-based; conditions: Klebsiella pneumoniae, read-out: MIC K. pneum. KP10581
Experimental: as §1, §2, §3, §4, §5, §6

K. pneum. R-1525 = assay: MIC assay; type: cell-based; conditions: Klebsiella pneumoniae, read-out: MIC K. pneum. R-1525
Experimental: as §1, §2, §3, §4, §5, §6

P. ae. PA14 = assay: MIC assay; type: cell-based; conditions: Pseudomonas aeruginosa, PA14, read-out: MIC P. ae. PA14
Experimental: as §1, §2, §3, §4, §5, §6

P. ae. PA14ΔmexAB = assay: MIC assay; type: cell-based; conditions: Pseudomonas aeruginosa, read-out: MIC P. ae. PA14ΔmexAB
Experimental: as §1, §2, §3, §4, §5, §6

S. aur. ATCC-29213 = assay: MIC assay; type: cell-based; conditions: Staphylococcus aureus, ATCC29213, read-out: MIC S. aur. ATCC-29213
Experimental: as §1, §2, §3, §4, §5, §6

[1] = test system: S. pneum. DSM-11865 (PRSP); assay: MIC assay; type: cell-based; conditions: Streptococcus pneumoniae, read-out: MIC S. pneum. DSM-11865 (PRSP)
Experimental: as §1, §2, §3, §4, §5, §6

E. faec. DSM-17050 (VRE) = assay: MIC assay; type: cell-based, Enterococcus faecium; conditions: Enterococcus, read-out: MIC E. faec. DSM-17050 (VRE)
Experimental: as §1, §2, §3, §4, §5, §6

[2] = Experimental: 2.1 Materials and Methods […]
Determination of in vitro ADME properties
7, 8, 11 and 42. All samples were analysed via HPLC -MS/MS.
HPLC-MS/MS analysis of cystobactamids
AB Sciex QTrap 6500plus mass spectrometer. LC conditions were as follows: column:
Samples were run under acidic
For plasma stability experiments, samples were procured from commercial sources.
Human plasma was obtained from Antibodies-online (catalog no. ABIN5706569), and mouse plasma was obtained from Tebubio (catalog no. D408-04-0050).
The methods were performed in accordance with relevant guidelines and regulations and approved by the Helmholtz Centre for Infection Research. […]

[3] = PK study in mice after intravenous administration; type: in vivo, CD-1 mice; conditions: male, plasma
Experimental: and approved by the Helmholtz Centre for Infection Research.
Germany), 4-weeks-old, were used. The animal studies were conducted in accordance […]
Verbraucherschutz und Lebensmittelsicherheit, Oldenburg, Germany.
Then, plasma was transferred into a new Eppendorf tube and stored at -80°C until analysis.
Bioanalysis of pharmacokinetic and pharmacodynamic samples […]
mouse plasma from CD-1 mice. Glipizide was used as an internal standard. In addition, […]
mixer. […] Supernatants were […]
transferred to standard HPLC-glass vials. Samples were analyzed using LC-MS/MS conditions as described above. Peaks of PK samples were quantified using the calibration curve using AB Sciex Multiquant Software 3.0. The accuracy of the calibration curve was determined using QCs independently prepared. PK parameters were determined using a non-compartmental analysis with PKSolver.23
Figure S1: Plasma concentration curves for cystobactamid 42. Error bars were determined via standard deviation of two cassette experiments per compound (n=2). […]
(1 picture or pasted object on this page, not shown here)

ESKAPE strains = assay: MIC-assays on a panel of representative ESKAPE strains, summary in words; type: cell-based; conditions: summary of the MIC tables
Experimental: as §1, §2, §3, §4, §5, §6

[4] = metabolic stability assay, mouse microsomes; conditions: Table S4
[5] = metabolic stability assay, human microsomes; conditions: second microsome column of Table S4, head prints (M); mouse and human microsomes

C#CC[C@H](NC(=O)c1ccc(NC(=O)c2ccc(C#N)cc2)cc1)C(=O)Nc1ccc(NC(=O)c2ccc(C(=O)Nc3ccc(C(=O)O)cc3)c(O)c2OC(C)C)cc1 [Cmpd. 42]
MIC (E. ae. CIP 106754): 1 µg/mL (≈ 1.26 µM)
MIC (A. baum. ATCC BAA-1710): 0.03 to 0.05 µg/mL (≈ 0.0378 to 0.0631 µM)
MIC (A. baum. CIP-105742): < 0.03 µg/mL
MIC (A. baum. CIP-107292): 0.05 µg/mL (≈ 0.0631 µM)
MIC (A. baum. DSM-30008): 0.125 µg/mL (≈ 0.158 µM)
MIC (A. baum. R835): 0.5 µg/mL (≈ 0.631 µM)
MIC (E. cloacae ATCC BAA-2468): 0.25 µg/mL (≈ 0.315 µM)
MIC (E. coli ATCC-25922): < 0.03 µg/mL
MIC (E. coli LM705): 0.06 µg/mL (≈ 0.0757 µM)
MIC (K. pneum. CIP-104298): < 0.03 µg/mL
MIC (K. pneum. KP10581): < 0.03 µg/mL
MIC (K. pneum. R-1525): < 0.03 µg/mL
MIC (P. ae. PA14): 4 µg/mL (≈ 5.05 µM)
MIC (P. ae. PA14ΔmexAB): < 0.03 µg/mL
MIC (S. aur. ATCC-29213): 0.06 µg/mL (≈ 0.0757 µM)
MIC [1]: < 0.03 µg/mL
MIC (E. faec. DSM-17050 (VRE)): < 0.03 µg/mL
T1/2 PLASMA (H) ([2]; human plasma): > 4 h
T1/2 PLASMA (M) ([2]; mouse plasma): > 4 h
clearance ([3]; CD-1, mouse, iv, 1 mg/kg): 17.9 ± 12.3 mL/min/kg
C0 ([3]; CD-1, mouse, iv, 1 mg/kg, concentration at t = 0 h, CD-1 mice, 1 mg/kg IV): ~2200 ng/mL
Vd ([3]; CD-1, mouse, iv, 1 mg/kg, volume of distribution, CD-1 mice, 1 mg/kg IV, read-out: Vz): ~1.4 L/kg
AUC(0-t) ([3]; mouse, CD-1 mice, 1 mg/kg IV): 1210 ± 832 ng·h/mL
half-life ([3]; mouse, CD-1 mice, 1 mg/kg IV): 0.88 ± 0.1 h
antibacterial activity on the pathogen panel, in words (ESKAPE strains): exceptional activity
T1/2 MICROSOMES (M) [4]: > 1 h
T1/2 MICROSOMES (M) [5]: > 1 h
